# Measured values from patent US8729122B2, “Pharmaceutical and nutraceutical compositions of abscisic acid” (Valent BioSciences Corporation, priority 2010, dated 2014).
# “And” between values parts separate entries of the source, which are not always exact repeats. Equal values may be shown once.
# Key:
# rats [1] = test: Two Generation Reproduction Toxicity Study (dietary S-ABA); format: in vivo; conditions: for SPLEEN WEIGHT, % DIFFERENCE: versus 0 PPM
# Procedure: Two Generation Reproduction Toxicity Study
# This study was conducted to determine the potential adverse effects of the test substance on reproduction in a 2-generation study. This included determining the effects of the test substance on male and female reproductive processes, including gonadal function, estrous cyclicity, mating behavior, conception, gestation, parturition, lactation, weaning, and on growth and development of the offspring. A minimum of 1 litter was produced in each generation.
# Three groups of male and female were offered S-ABA, continuously in the diet for at least 70 consecutive days prior to mating. Target tests substance concentrations were 10,000, 15,000, and 20,000 ppm for the F0 and F1 generations. A concurrent control group of 30 rats/sex was offered the basal diet continuously throughout the study. F0 animals were approximately 7 weeks of age at the initiation of test diet administration. The test diet was administered to the offspring selected to become the F1 generation following weaning. The F0 and F1 males continued to receive the test substance throughout mating and continuing through the day prior to euthanasia. The F0 and F1 females continued to receive the test substance throughout mating, gestation, and lactation, and through the day of euthanasia. For both generations (F1 and F2), 8 pups per litter (4 per sex, when possible) were selected to reduce the variability among the litters. Offspring (30/sex/group, if possible) from the pairing of the F0 animals were selected to constitute the F1 generation.
# All animals were observed twice daily for appearance and behavior. Clinical observations, body weights, and food consumption were recorded at appropriate intervals for males throughout the study and for females prior to mating and during gestation and lactation. All F0 and F1 females were allowed to deliver and rear their pups until weaning on lactation day 21. Clinical observations, body weights, and sexes for F1 and F2 pups were recorded at appropriate intervals. Nonselected F1 pups and all surviving F2 pups were necropsied. Selected organs were weighed from 1 pup/sex/litter from F1 and F2 pups that were necropsied. Each surviving F0 and F1 parental animal received a complete detailed gross necropsy following the completion of weaning of the F1 and F2 pups, respectively; selected organs were weighed. Spermatogenic endpoints were recorded for all F0 and F1 males, and ovarian primordial follicle counts were recorded for all F0 and F1 females in the control and high-exposure groups and all F0 and F1 females suspected of reduced fertility. Designated tissues from all F0 and F1 parental animals were examined microscopically.
# [2] = Fetal data at scheduled necropsy; format: in vivo, rats
# Description: Observations and testing results from this study can be seen in Tables 1, 3 and 6-13 below.
# Further supporting data can be seen below in Tables 10 and 11 showing that at necropsy fetus numbers and follicle size increase with the addition of S-ABA.
# rats [3] = test: 21-day Dermal Toxicity Study, removal of adhesive bandage; format: in vivo; conditions: for Total No. of Removals (adhesive bandage), individual animals: 3 weeks
# Procedure: Animals were allocated to dose groups and treated as follows:
# Animals were dosed daily by dermal administration, with an exposure period of 6 hours, 7 days/week for a period of 3 weeks.
# The lumbar region of the animals was clipped to expose the skin (approximately 6×6 cm) with the test formulation being spread evenly over this area. A dressing of foil gauze and self adhesive bandage was wrapped around the torso to prevent oral ingestion. Following 6 hours of exposure the dressings were removed and the dose area wiped clean with a cloth dampened with distilled water.
# During the dosing period it was noted that some animals were able to get the adhesive bandage off during the 6 hour exposure period.
# rats [4] = test: Rat neurotoxicity testing; format: in vivo; conditions: especially female
# [5] = second generation pups, 10,000 PPM
# [6] = second generation pups, 15,000 PPM
# [7] = second generation pups, 20,000 PPM
structure (smiles),measurement,setting,value
"CC1=CC(=O)CC(C)(C)[C@@]1(O)/C=C/C(C)=C\C(=O)O [S-ABA, (S)-(+)-abscisic acid]","POSTNATAL SURVIVAL, BIRTH-4 (PRE-SELECT), mean","rats [1]; 20,000 ppm",96.8 % PER LITTER
same,"POSTNATAL SURVIVAL, POSTNATAL DAY 0 (RELATIVE TO # BORN), mean","rats [1]; 20,000 ppm",98.5 % PER LITTER
same,"POSTNATAL SURVIVAL, POSTNATAL DAY 0-1, mean","rats [1]; 20,000 ppm",99.7 % PER LITTER
same,"POSTNATAL SURVIVAL, POSTNATAL DAY 1-4 (PRE-SELECTION), mean","rats [1]; 20,000 ppm",98.5 % PER LITTER
same,"POSTNATAL SURVIVAL, POSTNATAL DAY 4 (POST-SELECT)-21, mean","rats [1]; 20,000 ppm",98.0 % PER LITTER
same,"POSTNATAL SURVIVAL, POSTNATAL DAY 4 (POST-SELECTION)-7, mean","rats [1]; 20,000 ppm",98.5 % PER LITTER
same,"POSTNATAL SURVIVAL, POSTNATAL DAY 7-14, mean","rats [1]; 20,000 ppm",99.5 % PER LITTER
same,"POSTNATAL SURVIVAL, POSTNATAL DAY 14-21, mean","rats [1]; 20,000 ppm",100.0 % PER LITTER
same,"OFFSPRING WEIGHT, mean","rats [1]; 20,000 ppm, female, postnatal day 1",6.6 grams
same,"OFFSPRING WEIGHT, mean","rats [1]; 20,000 ppm, female, postnatal day 4",8.8 grams
same,"OFFSPRING WEIGHT, mean","rats [1]; 20,000 ppm, female, postnatal day 7",14.5 grams
same,"OFFSPRING WEIGHT, mean","rats [1]; 20,000 ppm, female, postnatal day 14",30.5 grams
same,"OFFSPRING WEIGHT, mean","rats [1]; 20,000 ppm, female, postnatal day 21",46.6 grams
same,"OFFSPRING WEIGHT, mean","rats [1]; 20,000 ppm, male, postnatal day 1",7.0 grams
same,"OFFSPRING WEIGHT, mean","rats [1]; 20,000 ppm, male, postnatal day 4",9.3 grams
same,"OFFSPRING WEIGHT, mean","rats [1]; 20,000 ppm, male, postnatal day 7",15.1 grams
same,"OFFSPRING WEIGHT, mean","rats [1]; 20,000 ppm, male, postnatal day 14",31.2 grams
same,"OFFSPRING WEIGHT, mean","rats [1]; 20,000 ppm, male, postnatal day 21",48.1 grams
same,"OVARIAN PRIMORDIAL FOLLICLE COUNTS, mean","rats [1]; females, 10,000 PPM",257.5
same,"OVARIAN PRIMORDIAL FOLLICLE COUNTS, mean","rats [1]; females, 15,000 PPM",214.0
same,"OVARIAN PRIMORDIAL FOLLICLE COUNTS, mean","rats [1]; females, 20,000 PPM",270.3
same,"PROSTATE WEIGHT, ORGAN WEIGHT, mean","rats [1]; male rats, 10,000 ppm in diet",1.08 GRAMS
same,"PROSTATE WEIGHT, ORGAN WEIGHT, mean","rats [1]; male rats, 15,000 ppm in diet",1.13 GRAMS
same,"PROSTATE WEIGHT, ORGAN WEIGHT, mean","rats [1]; male rats, 20,000 ppm in diet",1.09 GRAMS
same,"SPLEEN WEIGHT, mean","rats [1]; males, 10,000 PPM",0.98 GRAMS
same,"SPLEEN WEIGHT, % DIFFERENCE","rats [1]; males, 10,000 PPM",−2.0%
same,"SPLEEN WEIGHT, mean","rats [1]; males, 15,000 PPM",0.97 GRAMS
same,"SPLEEN WEIGHT, % DIFFERENCE","rats [1]; males, 15,000 PPM",−3.0%
same,"SPLEEN WEIGHT, mean","rats [1]; males, 20,000 PPM",0.92 GRAMS
same,"SPLEEN WEIGHT, % DIFFERENCE","rats [1]; males, 20,000 PPM",−8.9%
same,impact of prostate weight reduction on sperm production,"rats [1]; rats, two-generation study",no impact on sperm production
same,"SPLEEN WEIGHT, mean",rats [1]; [5],0.1989 GRAMS
same,"SPLEEN WEIGHT, % DIFFERENCE",rats [1]; [5],−14.8%
same,"SPLEEN WEIGHT, mean",rats [1]; [6],0.1918 GRAMS
same,"SPLEEN WEIGHT, % DIFFERENCE",rats [1]; [6],−17.8%
same,"SPLEEN WEIGHT, mean",rats [1]; [7],0.1979 GRAMS
same,"SPLEEN WEIGHT, % DIFFERENCE",rats [1]; [7],−15.2%
same,"FEMALE fetuses at scheduled necropsy, MEAN","[2]; group 2, 500 MG/KG/DAY",7.2
same,"MALE fetuses at scheduled necropsy, MEAN","[2]; group 2, 500 MG/KG/DAY",7.5
same,"VIABLE FETUSES at scheduled necropsy, MEAN","[2]; group 2, 500 MG/KG/DAY",14.7
same,"FEMALE fetuses at scheduled necropsy, MEAN","[2]; group 3, 750 MG/KG/DAY",6.6
same,"MALE fetuses at scheduled necropsy, MEAN","[2]; group 3, 750 MG/KG/DAY",7.5
same,"VIABLE FETUSES at scheduled necropsy, MEAN","[2]; group 3, 750 MG/KG/DAY",14.2
same,"FEMALE fetuses at scheduled necropsy, MEAN","[2]; group 4, 1,000 MG/KG/DAY",8.3
same,"MALE fetuses at scheduled necropsy, MEAN","[2]; group 4, 1,000 MG/KG/DAY",6.8
same,"VIABLE FETUSES at scheduled necropsy, MEAN","[2]; group 4, 1,000 MG/KG/DAY",15.1
same,ability to remove the adhesive bandage,rats [3]; female rats in the treatment group,much better at removing the adhesive bandage
same,"Total No. of Removals (adhesive bandage), individual animals","rats [3]; group 2F, females, 100 mg/kg/day dermal, 100 mg/kg/day",4 and 1
same,"Total No. of Removals (adhesive bandage), individual animals","rats [3]; group 2M, males, 100 mg/kg/day dermal",1
same,"Total No. of Removals (adhesive bandage), individual animals","rats [3]; group 3F, females, 300 mg/kg/day dermal, 300 mg/kg/day",2 and 3
same,"Total No. of Removals (adhesive bandage), individual animals","rats [3]; group 4F, females, 1000 mg/kg/day dermal, 1000 mg/kg/day",3 and 7 and 6
same,"Total No. of Removals (adhesive bandage), individual animals","rats [3]; group 4M, males, 1000 mg/kg/day dermal",1
same,alertness,rats [4],heighten alertness
